Values joined by “and” are separate entries in the source; they are usually repeats but may differ in a detail not shown here. Equal entries are not always repeated. Inconclusive results and toxic doses are left out. Rule as the data show it: active = T/C of 150% or more; inactive = T/C below 125%.
Tested on: L1210 leukemia ip in BDF1 mice, survival T/C
Assay: NCI In Vivo Anticancer Drug Screen. Data for tumor model L1210 Leukemia (intraperitoneal) in B6D2F1 (BDF1) mice
Settings: endpoint: mean survival time, higher = longer survival
Summary of the method: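 Ratio derived from survival: compound-dosed mice over vehicle-dosed mice, all bearing a transplantable tumor.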

[1] = dose: 100.0 mg/kg/injection, schedule: Q01DX001 (ip), vehicle: carboxymethylcellulose (CMC)
[2] = dose: 200.0 mg/kg/injection, schedule: Q01DX001 (ip), vehicle: carboxymethylcellulose (CMC)
[3] = dose: 400.0 mg/kg/injection, schedule: Q01DX001 (ip), vehicle: carboxymethylcellulose (CMC)
[4] = dose: 100.0 mg/kg/injection, schedule: Q01DX009 (ip), vehicle: Klucel (hydroxypropylcellulose) (HPC)
[5] = dose: 100.0 mg/kg/injection, schedule: Q04DX003 (ip), vehicle: Klucel (hydroxypropylcellulose) (HPC)
[6] = dose: 200.0 mg/kg/injection, schedule: Q01DX009 (ip), vehicle: Klucel (hydroxypropylcellulose) (HPC)
[7] = dose: 200.0 mg/kg/injection, schedule: Q04DX003 (ip), vehicle: Klucel (hydroxypropylcellulose) (HPC)
[8] = dose: 400.0 mg/kg/injection, schedule: Q01DX009 (ip), vehicle: Klucel (hydroxypropylcellulose) (HPC)
[9] = dose: 400.0 mg/kg/injection, schedule: Q04DX003 (ip), vehicle: Klucel (hydroxypropylcellulose) (HPC)

Measured: T/C

Clc1ccc(-c2ncc3cnccn23)cc1Cl
inactive: dose: 25.0 mg/kg/injection, schedule: Q01DX009 (ip), vehicle: saline with Tween-80 92 % of control | dose: 25.0 mg/kg/injection, schedule: Q04DX003 (ip), vehicle: saline with Tween-80 96 % of control | dose: 50.0 mg/kg/injection, schedule: Q01DX009 (ip), vehicle: saline with Tween-80 96 % of control | dose: 50.0 mg/kg/injection, schedule: Q04DX003 (ip), vehicle: saline with Tween-80 103 % of control | dose: 100.0 mg/kg/injection, schedule: Q04DX003 (ip), vehicle: saline with Tween-80 94 % of control and 96 % of control

O=S(=O)(F)/C=C\c1ccccc1
inactive: dose: 25.0 mg/kg/injection, schedule: Q01DX009 (ip), vehicle: acetone 92 % of control | dose: 100.0 mg/kg/injection, schedule: Q01DX001 (ip), vehicle: acetone 95 % of control | dose: 200.0 mg/kg/injection, schedule: Q01DX001 (ip), vehicle: acetone 104 % of control

CN(C)C1CCCC/C=C\C(=O)NC1 (stereo not given)
inactive: dose: 25.0 mg/kg/injection, schedule: Q04DX002 (ip), vehicle: saline 99 % of control | dose: 50.0 mg/kg/injection, schedule: Q04DX002 (ip), vehicle: saline 101 % of control | dose: 75.0 mg/kg/injection, schedule: Q01DX001 (ip), vehicle: saline 109 % of control | dose: 100.0 mg/kg/injection, schedule: Q04DX002 (ip), vehicle: saline 99 % of control

CCOC(=O)C(CC(C)C)NC(=O)C(N)Cc1ccc(N(CCCl)CCCl)cc1 (stereo not given)
inactive: dose: 2.5 mg/kg/injection, schedule: Q01DX009 (ip), vehicle: water 116 % of control

O=C(Nc1cc(Cl)ccc1Cl)OCCCl
inactive: dose: 100.0 mg/kg/injection, schedule: Q04DX002 (ip), vehicle: Klucel (hydroxypropylcellulose) (HPC) 97 % of control | dose: 200.0 mg/kg/injection, schedule: Q04DX002 (ip), vehicle: Klucel (hydroxypropylcellulose) (HPC) 102 % of control | dose: 400.0 mg/kg/injection, schedule: Q04DX002 (ip), vehicle: Klucel (hydroxypropylcellulose) (HPC) 97 % of control

CC1(CCOCc2ccccc2)NC(=O)N(CCC#N)C1=O (stereo not given)
inactive: dose: 50.0 mg/kg/injection, schedule: Q01DX001 (ip), vehicle: carboxymethylcellulose (CMC) 102 % of control | [1] 94 % of control | [2] 94 % of control | [3] 91 % of control

c1ccc(CNCCOB(OCCNCc2ccccc2)OCCNCc2ccccc2)cc1
inactive: [4] 94 % of control | [5] 98 % of control | [6] 94 % of control | [7] 111 % of control | [8] 97 % of control | [9] 95 % of control

COC1OCC2OC(C)(C)OC2C1OS(C)(=O)=O (stereo not given)
inactive: dose: 100.0 mg/kg/injection, schedule: Q01DX001 (ip), vehicle: saline 107 % of control | dose: 200.0 mg/kg/injection, schedule: Q01DX001 (ip), vehicle: saline 112 % of control | dose: 400.0 mg/kg/injection, schedule: Q01DX001 (ip), vehicle: saline 97 % of control

COc1cc(N)c2c(c1N)C(=O)c1ccccc1C2=O
inactive: [4] 96 % of control | [5] 98 % of control | [6] 104 % of control | [7] 90 % of control | [8] 100 % of control | [9] 100 % of control

CC(=O)OC1c2cc(Cl)ccc2-c2c(Cl)cc(Cl)cc21 (stereo not given)
inactive: [1] 95 % of control | [2] 95 % of control | [3] 95 % of control

O=C(Nc1cccc2ccccc12)Nc1cccc2ccccc12
inactive: [1] 95 % of control | [2] 90 % of control | [3] 92 % of control

FC(F)(F)C1=NC(=S)C(c2[nH]c(C(F)(F)F)nc2S)=N1
inactive: dose: 25.0 mg/kg/injection, schedule: Q01DX009 (ip), vehicle: water 91 % of control | dose: 50.0 mg/kg/injection, schedule: Q01DX009 (ip), vehicle: water 96 % of control | dose: 100.0 mg/kg/injection, schedule: Q01DX009 (ip), vehicle: water 96 % of control | dose: 200.0 mg/kg/injection, schedule: Q01DX009 (ip), vehicle: water 110 % of control
